{
  "source": "patent US20090163548A1",
  "about": "“Method of using and comopositions comprising immunomodulatory compounds for the treatment and management of myeloproliferative diseases” (priority 2004, published 2009)",
  "key": {"[1]": {"settings": "dog, in vivo", "procedure": "The effects of 3-(4-amino-1-oxo-1,3-dihydro-isoindol-2-yl)-piperidine-2,6-dione on cardiovascular and respiratory function were investigated in anesthetized dogs. Two groups of Beagle dogs (2/sex/group) were used. One group received three doses of vehicle only and the other received three ascending doses of 3-(4-amino-1-oxo-1,3-dihydro-isoindol-2-yl)-piperidine-2,6-dione (2, 10, and 20 mg/kg). In all cases, doses of 3-(4-amino-1-oxo-1,3-dihydro-isoindol-2-yl)-piperidine-2,6-dione or vehicle were successively administered via infusion through the jugular vein separated by intervals of at least 30 minutes.\nThe only statistically significant difference between the vehicle and treatment groups was a small increase in arterial blood pressure (from 94 mmHg to 101 mmHg) following administration of the low dose of 3-(4-amino-1-oxo-1,3-dihydro-isoindol-2-yl)-piperidine-2,6-dione."}, "TNF-α [2]": {"test_system": "TNF-α", "assay": "Inhibition of TNF-α production following LPS-stimulation of human whole blood", "assay_type": "cell-based", "settings": "LPS-stimulated, read-out: IC50 for inhibiting production of TNF-α following LPS-stimulation of human whole blood", "source_text": "(§1) Inhibition of TNF-α production following LPS-stimulation of human PBMC and human whole blood by 3-(4-amino-1-oxo-1,3-dihydro-isoindol-2-yl)-piperidine-2,6-dione or thalidomide was investigated in vitro (Muller et al., Bioorg. Med. Chem. Lett. 9:1625-1630, 1999)."}, "various cytokines": {"test_system": "various cytokines", "assay": "In vitro studies of effects on the production of various cytokines, comparison with thalidomide", "assay_type": "cell-based", "settings": "in all in vitro cytokine production studies", "source_text": "The pharmacological properties of 3-(4-amino-1-oxo-1,3-dihydro-isoindol-2-yl)-piperidine-2,6-dione, including activity comparisons with thalidomide, have been characterized in in vitro studies. Studies examined the effects of 3-(4-amino-1-oxo-1,3-dihydro-isoindol-2-yl)-piperidine-2,6-dione or thalidomide on the production of various cytokines. […] In addition, a safety pharmacology study of 3-(4-amino-1-oxo-1,3-dihydro-isoindol-2-yl)-piperidine-2,6-dione has been conducted in dogs and the effects of 3-(4-amino-1-oxo-1,3-dihydro-isoindol-2-yl)-piperidine-2,6-dione on ECG parameters were examined further as part of three repeat-dose toxicity studies in primates."}, "TNF-α [3]": {"test_system": "TNF-α", "assay": "Inhibition of TNF-α production following LPS-stimulation of human PBMC", "assay_type": "cell-based", "settings": "LPS-stimulated, read-out: IC50 for inhibiting production of TNF-α following LPS-stimulation of PBMC", "source_text": "as §1"}},
  "data": [
    {"smiles": "Nc1cccc2c1CN(C1CCC(=O)NC1=O)C2=O", "note": "(stereo not shown) [3-(4-amino-1-oxo-1,3-dihydro-isoindol-2-yl)-piperidine-2,6-dione]", "values": [
      {"measurement": "Arterial blood pressure after administration", "setting": "[1]; both, Beagle, 2 mg/kg", "value": 101, "unit": "mmHg"},
      {"measurement": "Duration of the increase in arterial blood pressure", "setting": "[1]; both, Beagle, 2 mg/kg", "value": "approximately 15 minutes"},
      {"measurement": "Deviations in femoral blood flow, respiratory parameters, and Qtc interval", "setting": "[1]", "value": "not considered treatment-related"},
      {"measurement": "Increase in arterial blood pressure at higher doses", "setting": "[1]", "value": "not seen at higher doses"},
      {"measurement": "IC50", "setting": "TNF-α [2]", "value": "~480", "unit": "nM"},
      {"measurement": "Potency relative to thalidomide", "setting": "various cytokines", "value": "at least 50 times"},
      {"measurement": "IC50", "setting": "TNF-α [3]", "value": "~100", "unit": "nM"}
    ]}
  ]
}
